“And” between values parts separate entries of the source, which are not always exact repeats. Equal values may be shown once. “Also recorded” adds a separate entry of the source. Where a name gives a salt, the structure may show the parent alone. Read-outs that look alike come from different tables or passages of the source.
How the values were obtained:
[1] = tested on: EBOV/Kik (Ebola virus Kikwit variant); type: cell-based
[2] = tested on: EBOV/Mak (Ebola virus Makona variant); type: cell-based
EBOV-eGFP [3] = type: cell-based, Ebola virus
[4] = tested on: Vero E6, Hep G2, HeLa, Huh 7 cells
[5] = tested on: EBOV/Kik (Ebola virus Kikwit variant); conditions: cited from earlier work
[6] = both, Hartley, guinea pig, in vivo, po, 60 mg/kg
EBOV-eGFP [7] = conditions: cited from earlier work
Ebola virus disease = conditions: human, in vivo; cited from earlier work
in vivo = conditions: Hartley, guinea pig, po, 60 mg/kg; for AUC(0-inf): AUCinf (h·ng/ml); for AUC(0-t): AUClast (h·ng/ml); for Cmax: Cmax (ng/ml)

Compound: Cc1cn([C@H]2C[C@H](N=[N+]=[N-])[C@@H](CO)O2)c(=O)[nH]c1=O [Zidovudine]
- antiviral activity against EBOV/Kik [1]: no detectable antiviral activity
- IC50 ([1]; read-out: IC50): > 320 µM
- antiviral activity against EBOV/Mak [2]: did not show antiviral activity
- antiviral activity against EBOV/Mak infection in MDMs [2]: did not demonstrate any antiviral activity
- anti-EBOV activity against EBOV-eGFP (EBOV-eGFP [3]): None of these compounds showed any anti-EBOV activity
- cytotoxicity [4]: minimal cytotoxicity
- IC50 [5]: > 320 µM

Compound: Nc1ccn([C@@H]2CS[C@H](CO)O2)c(=O)n1 [Lamivudine]
- antiviral activity against EBOV/Kik [1]: no detectable antiviral activity
- IC50 ([1]; read-out: IC50): > 320 µM
- anti-EBOV activity [2]: No significant anti-EBOV activity
- antiviral activity against EBOV/Mak [2]: did not show antiviral activity; also recorded: did not demonstrate any antiviral activity
- antiviral activity against EBOV/Mak infection in MDMs [2]: did not demonstrate any antiviral activity
- antiviral activity with extended drug pre-treatment [2]: did not improve
- viral inhibition (maximum achieved) ([2]; 320 µM): ≤ 30%
- IC50 ([2]; read-out: IC50): > 320 µM
- anti-EBOV activity against EBOV-eGFP (EBOV-eGFP [3]): None of these compounds showed any anti-EBOV activity
- cytotoxicity [4]: minimal cytotoxicity
- IC50 [5]: > 320 µM
- AUCinf higher in male compared with female guinea pigs [6]: about 34%
- time of small second peak of plasma concentration [6]: 4 to 6 h
- IC25 (EBOV-eGFP [7]): 43.13 µM
- inhibition of viral replication (maximum) (EBOV-eGFP [7]): ≤ 45%
- patients successfully treated (Ebola virus disease): 13 out of 15
- Tmax (in vivo; both, time to reach peak plasma concentrations): ≤ 1 h
- AUC(0-inf) (in vivo; female): 12600 ng·h/mL
- AUC(0-t) (in vivo; female): 14600 ng·h/mL
- Cmax (in vivo; female): 4110 ng/mL
- Tmax (in vivo; female, Tmax (hr)): 1 h
- AUC(0-inf) (in vivo; male): 16800 ng·h/mL
- AUC(0-t) (in vivo; male): 15500 ng·h/mL
- Cmax (in vivo; male): 4560 ng/mL
- Tmax (in vivo; male, Tmax (hr)): 1 h

Compound: CN(C)CCOc1ccc(/C(=C(/CCCl)c2ccccc2)c2ccccc2)cc1 [Toremifene, Toremifene citrate]
- IC50 ([1]; read-out: IC50s (range over cell lines)): 2.2 to 9.9 µM
- antiviral activity against EBOV/Mak [2]: strong antiviral activity
- IC50 ([2]; read-out: IC50): 1.2 ± 0.1 µM
- IC50 ([2]; read-out: IC50s (range) in MDMs): 2.1 to 4.5 µM
- doses at which cytotoxicity increased (human MDMs): ≥ 10 µM
- IC50 [5]: ~25 µM and 18.3 µM

Reference: PMC5130197 (PLoS ONE, 2016)
